Key:
HEL [1] = experiment: Concentration required against HEL cell proliferation; format: functional; details: Homo sapiens
Human alphaherpesvirus 3 [2] = experiment: Antiviral activity evaluated against Varicella Zoster virus (YS); format: functional, organism-based
Human betaherpesvirus 5 [3] = experiment: Antiviral activity evaluated against human cytomegalovirus (HCMV) AD169; format: functional, organism-based
Human alphaherpesvirus 3 [4] = experiment: Antiviral activity evaluated against thymidine kinase deficient(TK-) Varicella Zoster virus (YS); format: functional, organism-based
Human betaherpesvirus 5 [5] = experiment: Antiviral activity evaluated against human cytomegalovirus (HCMV) Davis; format: functional, organism-based
Human alphaherpesvirus 3 [6] = experiment: Concentration required to give 50% inhibition of replication of VZV OKA in tissue culture; format: functional, organism-based
HEL [7] = experiment: Minimal cytotoxic concentration required to cause a morphological alteration of human embryonic lung fibroblast(HEL) cell cultures; format: functional
Human alphaherpesvirus 3 [8] = experiment: Antiviral activity evaluated against thymidine kinase competent(TK+) Varicella Zoster virus (07); format: functional, organism-based

Row | Compound | EC50 (Human alphaherpesvirus 3 [2]) [µM] | EC50 (Human betaherpesvirus 5 [3]) [µM] | EC50 (Human alphaherpesvirus 3 [4]) [µM] | EC50 (Human betaherpesvirus 5 [5]) [µM] | EC50 (Human alphaherpesvirus 3 [6]) [µM] | EC50 (Human alphaherpesvirus 3 [8]) [µM] | CC50 (HEL [1]) [µM] | MCC (HEL [7]) [µM]
1 | O=c1nc2oc(CCCCCCCCCOCCCCCl)cc2cn1[C@H]1C[C@H](O)[C@@H](CO)O1 | 0.03 | 9.7 | ≥ 50 | 30 | 0.05 | ≥ 200 | > 200 | ≥ 200
2 | CCCCCCCOCCc1cc2cn([C@H]3C[C@H](O)[C@@H](CO)O3)c(=O)nc2o1 |  |  |  |  | 6 |  |  | 
3 | CC(C)CCOCCCCCCCCCc1cc2cn([C@H]3C[C@H](O)[C@@H](CO)O3)c(=O)nc2o1 | 0.06 | > 5 | > 5 | 5 | 0.05 | > 5 | > 200 | 10
4 | O=c1nc2oc(CCCCCCCCCOCC3CCCC3)cc2cn1[C@H]1C[C@H](O)[C@@H](CO)O1 | 0.1 | > 5 | > 5 | 5 | 0.09 | > 5 | > 200 | ≥ 5
5 | Nc1nc2c(ncn2COC(CO)CO)c(=O)[nH]1 [GANCICLOVIR] |  | 4 |  | 5.7 |  |  | > 150 | > 150

Now from value to compound, other results behind:

Row | EC50 (Human alphaherpesvirus 3 [2]) [µM] | EC50 (Human betaherpesvirus 5 [3]) [µM] | EC50 (Human alphaherpesvirus 3 [4]) [µM] | EC50 (Human betaherpesvirus 5 [5]) [µM] | EC50 (Human alphaherpesvirus 3 [6]) [µM] | EC50 (Human alphaherpesvirus 3 [8]) [µM] | Compound | CC50 (HEL [1]) [µM] | MCC (HEL [7]) [µM]
6 | 0.03 | > 5 | > 5 | > 5 | 0.02 | > 5 | CCCCOCCCCCCCCCc1cc2cn([C@H]3C[C@H](O)[C@@H](CO)O3)c(=O)nc2o1 | > 200 | 20
7 | 0.02 | > 5 | > 5 | > 5 | 0.01 | > 5 | CCCCCOCCCCCCCCCc1cc2cn([C@H]3C[C@H](O)[C@@H](CO)O3)c(=O)nc2o1 | > 200 | 10
